Assay results as given in PMC8692993, “PPARα and PPARγ activation is associated with pleural mesothelioma invasion but therapeutic inhibition is ineffective” (iScience, 2021).
Like-named read-outs stand apart in the source and are kept apart here.

Columns and labels:
[1] = molecular target: T1, PPARγ (Homo sapiens, UniProt P37231); experiment: HG5LN reporter cell assay, PPARγ-mediated transcription; assay type: cell-based; design: expressed in transfected cells; host or cells: HG5LN (HeLa-derived, GAL4RE-luciferase)
T1 sequence (P37231 238-503 limits assumed): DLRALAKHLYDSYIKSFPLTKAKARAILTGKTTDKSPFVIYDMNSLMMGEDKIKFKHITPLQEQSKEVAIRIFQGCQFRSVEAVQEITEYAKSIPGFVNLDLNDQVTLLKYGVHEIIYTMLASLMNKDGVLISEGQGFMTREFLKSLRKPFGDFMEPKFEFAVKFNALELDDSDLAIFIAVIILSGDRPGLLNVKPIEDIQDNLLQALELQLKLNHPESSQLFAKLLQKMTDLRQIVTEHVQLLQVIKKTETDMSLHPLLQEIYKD
From the text: (§1) Nuclear receptors, including PPARα and γ, are ligand-inducible transcription factors that form heterodimers with retinoid X receptors and bind to specific DNA sites located in the enhancer/promoter region of target genes, releasing co-repressors and/or recruiting co-activators ([Wang, 2010]). We therefore assessed the functional consequences of the ligands on PPARα and γ-mediated transcriptional activation in reporter cell lines. These cell lines were generated as previously reported by a two-step transfection procedure ([Seimandi et al., 2005]). First, a stable cell line, HG5LN, expressing the reporter gene (GAL4RE-luciferase) was developed from the HeLa cell line. These cells were then transfected with a plasmid expressing the C-terminal ligand-binding domain of PPARα or γ fused to GAL4 DNA-binding domain. The parental HG5LN cells were used as a control to test non-specific modulation of luciferase expression by the small molecules investigated (Figure S4A). The HG5LN PPAR reporter cells therefore allow comparison of the functional activity at, and selectivity of different ligands for, PPARα and γ. […] As expected ([Abu Aboud et al., 2015]), GW6471 potently antagonized PPARα (Figure 4E and Table 1).
(§2) A transfected […] cell line HG5LN was used ([Balaguer et al., 2001]). These cells were cultured in Dubecco's modified Eagle's medium (DMEM-F12 Thermo Fisher Scientific) with phenol red and supplemented with 5% foetal calf serum, incubated at 37°C in a 5% CO2/95% air-humidified atmosphere. Luciferase assays were performed in DMEM-F12 (Thermo Fisher Scientific) without phenol red and supplemented with 5% dextran-coated charcoal-stripped FCS (test culture medium), puromycin (Thermo Fisher Scientific) 0.5 μg/mL and geneticin (Thermo Fisher Scientific) 1 mg/mL. Cells were seeded at a density of 5 x 10^4 cells/well and incubated for 8 h at 37°C in a 96-well plate white opaque tissue culture plates (Becton-Dickinson). Tested compounds were added in serial dilutions and incubated for 16 h at 37°C. After incubation, the medium containing the effectors was carefully removed and replaced by culture medium containing 3 x 10^−4 mol/L luciferin (Sigma Chemicals). After 5 min incubation at room temperature, the 96-well plate was then read with a Microbeta Wallac luminometer and the luminescence was measured in the living cells for 2 s. All experiments were performed in quadruplicate.

[2] = molecular target: T2, PPARδ (Homo sapiens, UniProt Q03181); experiment: HG5LN reporter cell assay, PPARδ; assay type: cell-based; conditions: HG5LN PPARδ reporter cells
T2 construct: expressed in transfected cells; host or cells: HG5LN (HeLa-derived, GAL4RE-luciferase)
T2 sequence (Q03181 211-439 limits assumed): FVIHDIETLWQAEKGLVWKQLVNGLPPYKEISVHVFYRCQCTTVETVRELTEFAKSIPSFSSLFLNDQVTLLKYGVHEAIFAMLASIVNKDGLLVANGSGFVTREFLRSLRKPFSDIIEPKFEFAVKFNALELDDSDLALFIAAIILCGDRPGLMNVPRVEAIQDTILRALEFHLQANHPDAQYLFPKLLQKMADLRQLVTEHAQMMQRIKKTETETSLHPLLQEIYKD

[3] = molecular target: T3, PPARα (Homo sapiens, UniProt Q07869); experiment: HG5LN reporter cell assay, PPARα-mediated transcription; assay type: cell-based; design: expressed in transfected cells; host or cells: HG5LN (HeLa-derived, GAL4RE-luciferase)
T3 sequence (Q07869 239-466 limits assumed): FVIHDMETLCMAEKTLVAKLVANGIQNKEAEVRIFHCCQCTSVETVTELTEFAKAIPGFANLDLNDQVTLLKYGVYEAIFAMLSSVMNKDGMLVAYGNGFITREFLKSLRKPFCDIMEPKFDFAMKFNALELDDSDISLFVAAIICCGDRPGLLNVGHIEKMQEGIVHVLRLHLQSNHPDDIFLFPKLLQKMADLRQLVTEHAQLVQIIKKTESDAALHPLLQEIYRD
From the text: as §1, §2

[4] = tested on: head and neck paraganglioma; design: method as in Florio et al., 2017; conditions: 24 μM, by cell-cycle arrest and caspase-dependent apoptosis; ref Florio et al., 2017; cited from earlier work
[5] = tested on: HAP1, HAP1 PPARA KO, and HAP1 PPARG KO cell lines; experiment: Scratch wound migration assay, HAP1 lines; assay type: cell-based, human; conditions: 1 and 10 μM
Procedure: Cells were harvested and seeded in Incucyte®ImageLock 96-well plates (Essen BioScience) at a density of 10 x 10^4 cells/mL overnight. A scratch wound was performed on the confluent cells with the 96-pin IncuCyte WoundMaker Tool (Essen BioScience). For migration assays, cells were washed with PBS once before adding 100 μL media with GW6471 at indicated concentrations. For matrigel invasion assays, cells were washed with PBS once before adding 50 μL of matrigel basement membrane matrix (FAL356231; Corning, NY, USA) at 8 mg/mL; lastly 100 μL media with GW6471 at indicated concentrations were added on top of the matrigel. Wounded cells were incubated in the IncuCyte ZOOM® at 37°C with 5% CO2. Data were analysed using the Incucyte® Scratch Wound Cell Migration Software Module and calculating the Relative Wound Density (%) (RWD) for both migration and invasion assays.

[6] = molecular target: T1, PPARγ; design: expressed in transfected cells; host or cells: HG5LN (HeLa-derived, GAL4RE-luciferase); method as in Goldstein et al., 2017; conditions: an IC50 value was not reported, ref Goldstein et al., 2017, read-out: Functionality, Lit. IC50; cited from earlier work

## CCC(=O)NC[C@H](Cc1ccc(OCCc2nc(-c3ccccc3)oc2C)cc1)N/C(C)=C\C(=O)c1ccc(C(F)(F)F)cc1 [GW6471]
[1]
  Functionality, Type: antagonist
[1]; inhibition of agonism by 30 nM rosiglitazone, 16 h incubation, mean of 3 experiments ± SEM
  IC50: 210 ± 64 nM
[2]
  Effect on PPARδ in reporter cell assay: no effect
[3]
  Functionality, Type: antagonist
[3]; inhibition of agonism by 10 nM GW7647, 16 h incubation, mean of 3 experiments ± SEM
  IC50: 254 ± 96 nM
[4]
  Cell viability and growth: reduced cell viability and growth
[5]
  Effect on migration compared between PPARA KO, PPARG KO and wild-type cells: not significantly different
[5]; HAP1 lines
  In vitro migration: concentration-dependent effect on in vitro migration
[6]
  IC50: < 1000 nM
